Measurements reported in patent US9017938B2, “Use of microrna-199b-5p in medical and diagnostic field” (Advanced Accelerator Applications, priority 2009, dated 2015).

How the values were obtained:
Type in all cases: cell-based, human
[1] = test system: Daoy cell side population; assay: Side population FACS (Hoechst 33342 exclusion)
Protocol: (§1) The flow cytometry analysis of S-phase fractions and cell-cycle kinetics were carried out using a FACSCalibur (Becton Dickinson, San Jose, Calif.) using CELL Quest version 3.3 software. The CD133 studies were carried out using the same instrument, with antibodies from Miltenyi Biotec (Auburn, Calif.), according to the manufacturer instructions. In brief, the cells were blocked in Fc receptor blocking reagent and incubated with an anti-CD133/1 (AC133)-phycoerythrin antibody (Miltenyi Biotec), for 10 min in the dark at 4° C. The cells were then washed and resuspended in PBS. Cells expressing higher levels of CD133 than the immunoglobulin G (IgG) controls were considered positive. For analyses of the side populations, cells […] were incubated with Hoechst 33342 (5 μmol/L; Sigma) for 90 min at 37° C. in EMEM containing 2% FBS. To ensure the correct identification of the side population cells, the cells were incubated as above with the addition of 50 μM verapamil (Sigma).

Daoy cells [2] = assay: In-vitro cell-motility assay (Boyden chamber); conditions: 199bSC1 vs empty vector control, 0.5% FBS chemoattractant
Protocol: The control DAOY cell line and the stable DAOY-199bSC1 clone were used in the ‘cell-motility’ assays. Cell migration assays were performed with 8-μm pore size Transwells (Costar). The cells were suspended by trypsinization, washed, and resuspended in 100 μl serum-free DMEM containing 0.1% BSA (5×10^4 cells) and placed in the upper chamber of the Transwells. The lower chamber was filled with 600 μl serum-free DMEM supplemented with 0.5% FBS, as the chemo-attractor. The cells were allowed to migrate for 1 h at 37° C. Cells migrating to the lower side of the polycarbonate membrane were fixed with 2.5% glutaraldehyde and stained with Hematoxylin solution (Sigma). The cells were counted, and the analysis performed on three Transwells for each condition, and each experiment was repeated twice.

Daoy cells [3] = assay: Soft-agar colony formation assay; conditions: stable 199bSC1 clone vs empty-vector clone
Protocol: Daoy cells and the stable 199b clone were seeded in 1 ml EMEM supplemented with 2% FBS, containing 0.3% agarose. Cultures were maintained for two weeks and refreshed with EMEM supplemented with 2% FBS twice per week. Colonies of more than 100 μm in diameter were counted under a Leica (Nussloch, Germany) DC500 compound microscope.

CD133+ Daoy cells = assay: CD133 FACS analysis
Protocol: as §1

HES1 3′UTR = assay: Luciferase reporter assay, HES1 3′UTR; conditions: co-transfected miR-199b-5p expression vector
Protocol: To determine the activity of miR-199b-5p on repression of the luciferase-3′UTR fused constructs, the pREYZO-miR-199b-5p construct and the pRL-CMV-3′UTR target construct were co-transfected into HEK293 cells at a ratio of 10:1, using the Polyfect reagent (Qiagen) together with the pGL3 basic vector, in the absence and presence of 2-OM (400 nM). Luciferase activities were analysed using a Dual Luciferase Reporter Assay system (Promega, Madison, Wis.).
Pre-miR-199b was cloned in a pcDNA3 modified vector (pREYZO) (D'angelo et al., 2004) using EcoRI-XhoI restriction sites. HES1 and GSK-3˜target-binding sites (3′UTRs) were cloned in tandem in the 3′UTR of 20 the pRL-cytomegalovirus (CMV) vector (Promega, Madison, Wis.) downstream of the coding region of Renilla luciferase (RL) in the XbaI site The HES1 3′UTR (including the 199b binding site) was amplified from genomic DNA with the following primers: HES1—3′UTR as […] (SEQ ID NO: 96) and HES1—3′UTR as […] (SEQ ID NO: 97), and was cloned in the TK vector (Promega, Madison, Wis.) upstream of the firefly luciferase gene, in the XbaI sites. HES1 full-length cDNA was obtained with a standard RTPCR approach from a Daoy cDNA.
The site-directed mutagenesis of the miR-199b-5p binding site in HES1 3′UTR was generated according to the manufacturer protocol of the QuikChange site-directed mutagenesis kit (Stratagene, La Jolla, Calif.). […]

Daoy cells [4] = assay: Expression of differentiation and proliferation markers (real-time PCR, Western blot)
Protocol: Total RNA was extracted from the cell lines using the Trizol reagent (Invitrogen). Synthesis of cDNA from total RNA (4 μg) was performed using a Super Script II First Strand Kit (Invitrogen). Real-time quantitative PCR was performed using standard protocols with an Applied Biosystems ABI PRISM 7900HT Sequence Detection system. To calculate the relative gene expression of the miR-199b-5p precursor, the relative amounts of each pre-miRNA were normalized to U6 miRNA; the other genes were normalized using the β-actin gene. Real-time PCR primers for each gene were designed using Primer Express software version 2.0 (Applied Biosystems). The primer sequences are available upon request.
Thirty μg cytosolic or nuclear lysates were loaded onto 12% polyacrilamide gels, and blotted onto polyvinylidene difluoride membranes (PVDF; BioRad, Milan, Italy). The membranes were then incubated with anti-HES1 (kind gift of Dr. Tetsuo Sudo TORAY Industries, Tebiro Kamakura, Japan), a polyclonal rabbit antibody (1:500), an anti-GSK3-β (B&D Bioscience) monoclonal antibody (1:2500), an anti-c-Myc polyclonal rabbit antibody (1:200) (Santa Cruz Biotechnology, Santa Cruz, Calif., USA), an anti-GABRA6 antibody (Santa Cruz Biotechnology, Santa Cruz, USA) (1:200), an anti-MATH3 antibody (Santa Cruz Biotechnology, Santa Cruz, USA) (1:200) and an anti-cyclin D1 (1:200) polyclonal rabbit antibody (Cell Signaling). An anti-β-actin antibody (1:1.000) (Sigma) was used as the control for equal loading of cytosolic lysates and a polyclonal anti-β-laminin antibody (1:50) (Santa Cruz Biotechnology, Santa Cruz, Calif., USA) for equal loading of nuclear lysates.

[5] = Western blot, stable 199bSC1 clone

Substance: miR-199b-5p: mature microRNA CCCAGUGUUUAGACUAUCUGUUC (SEQ ID NO:11); over-expressed from pre-miR-199b construct, e.g. stable Daoy clones 199bSC1, 199bMC1 (listed as RNA, chemistry not fully specified)
- fraction of SP cells ([1]; stable 199bMC1 clone (Daoy cells 5.2%)): 0.4%
- fraction of SP cells ([1]; stable 199bSC1 clone (Daoy cells 5.2%)): 0.2%
- cell motility (Daoy cells [2]): did not lead to a decrease in cell motility
- reduction in colony formation potential (Daoy cells [3]): 80%
- CD133+ cells (CD133+ Daoy cells; stable 199bMC1 clone (wild-type cells 14.8%)): 6.5%
- CD133+ cells (CD133+ Daoy cells; stable 199bSC1 clone (wild-type cells 14.8%)): 2.4%
- effect on luciferase reporter with HES1 3′UTR mutated in the miR-199b binding site (HES1 3′UTR): no effect
- reduction of luciferase activity from wild-type HES1 3′UTR reporter (HES1 3′UTR; HEK293 and Daoy cell lines): 50%
- GABRA6 protein (Daoy cells [4]; [5]): up-regulated
- MATH3 protein (Daoy cells [4]; [5]): up-regulated
- c-Myc protein (Daoy cells [4]; [5]): decreased
- cyclin D1 protein (Daoy cells [4]; [5]): decreased
- expression of pro-neural bHLH (MASH1, MATH3, NGN2) (Daoy cells [4]; real-time PCR, both stable clones): increases in expression
- MAP2 mRNA expression (Daoy cells [4]; real-time PCR, stable 199bSC1 and 199bMC1 clones): up-regulated
- GFAP levels (Daoy cells [4]; real-time PCR, stable 199bSC1 clone): increased
- GABRA6 mRNA expression (Daoy cells [4]; real-time PCR, stable clones): significantly over-expressed
- c-Myc expression (Daoy cells [4]; real-time PCR, stable clones): decreased
- cyclin D1 expression (Daoy cells [4]; real-time PCR, stable clones): decreased
